Common to all, as to assay type: in vivo
The test system of series [1] is Echinochloa oryzacola Vasing. Kind of series: Test Example 1: herbicidal activity, application before weed generation in submerged conditions (symbol A). The following applies: application herbicide amount 320 g/ha. The essentials: (§1)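 Steps: alluvial soil flooded to 4 cm; weed seeds sown together; rice seedlings (2.5 leaf) transplanted; diluted emulsion applied to water surface the same day as sowing; plants grown at 25–30 °C in greenhouse; herbicidal effect rated on a 0–5 scale at 3 weeks.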

Series [2] deals with Scirpus juncoides. As to the kind of experiment: Test Example 1: herbicidal activity, application before weed generation in submerged conditions (symbol B). The following applies: application herbicide amount 320 g/ha. The gist of the method:
as §1

In series [3] the test system is Scirpus juncoides. Kind of series: Test Example 2: herbicidal activity, application during weed generation in submerged conditions (symbol B). The following applies: Table 23; application herbicide amount 320 g/ha; grade 0-5 by criteria of Test Example 1. The essentials:
(§2)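 Visual herbicidal ratings, taken three weeks after dosing, reflect post-emergence water-surface application to seedlings at one to two leaves. Conditions: co-sown weeds in alluvial soil flooded to 4 cm, greenhouse held at 25° C. to 30° C.; compound given as water-diluted emulsion at a fixed herbicide amount.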

Series [4] has as its system Monochoria vaginalis. As to the kind of experiment: Test Example 2: herbicidal activity, application during weed generation in submerged conditions (symbol C). The following applies: Table 23; application herbicide amount 320 g/ha; grade 0-5 by criteria of Test Example 1. The gist of the method: as §2
Series [5] deals with Echinochloa crus-galli var. crus-galli. Kind of series: Test Example 3: herbicidal effect by foliage application, Wagner pot (symbol H). The following applies: application herbicide amount 320 g/ha. The gist of the method:
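Herbicidal activity was rated three weeks after a foliar spray of diluted emulsion concentrate, applied at a predetermined dose to plants grown for 14 days from seed in waterlogged alluvial soil within a 25–30 °C greenhouse.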

Series [6] has as its system Amaranthus retroflexus. Kind of series: Test Example 4: herbicidal effect by soil treatment (symbol N). The essentials:
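Seeds were sown in sterilized diluvial soil, covered with about 1.5 cm of soil, and the soil surface was sprayed with a water-diluted emulsion of the compound at a predetermined rate. Plants grew in a greenhouse at 25° C. to 30° C.; effects were scored visually 3 weeks after application.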

Series [7] deals with soybean. Kind of series: Test Example 4: effect on crop by soil treatment (symbol d). The essentials: (§3)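 Plants are raised in a greenhouse (25° C. to 30° C.) from spot-sown seed, which sits under about 1.5 cm of sterilized diluvial soil in a box shared with weed species.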
Series [8] deals with rapeseed. As to the kind of experiment: Test Example 4: effect on crop by soil treatment (symbol g). The essentials: as §3
Series [9] relates to Avena fatua. Kind of series: Test Example 5: herbicidal effect by foliage application, plastic box (symbol I). The following applies: 320 g/ha, 3 weeks after application. The essentials: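 Leaf-applied emulsion, water-diluted to a preset herbicide dose, on two-week-old seedlings raised in a 25° C. to 30° C. greenhouse; injury rated at 3 weeks using earlier criteria.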
The test system of series [10] is soybean. As to the kind of experiment: Test Example 5: effect on crop by foliage application, plastic box (symbol d). The following applies: 320 g/ha, 3 weeks after application. The essentials:
(§4)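 Soil: sterilized diluvial. Container: plastic box, 21 × 13 cm, 7 cm deep. Sowing: spot-like, ~1.5 cm cover. Growth: greenhouse, 25° C. to 30° C.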

Series [11] concerns rice plant. Kind of series: Test Example 5: effect on crop by foliage application, plastic box (symbol b). The following applies: 320 g/ha, 3 weeks after application. The essentials: as §4
In series [12] the test system is wheat. As to the kind of experiment: Test Example 5: effect on crop by foliage application, plastic box (symbol e). The following applies: 320 g/ha, 3 weeks after application. The essentials:
as §4

Setting [13] is: application herbicide amount 320 g/ha.

With `CON=C(CC1CC(O)=C(c2c(C)cc(C#C[Si](C)(C)C)cc2C)C1=O)C(C)C` (stereo not drawn) [9-005], in series [1], the “Herbicidal effect grade, A: Echinochloa oryzacola Vasing.” value was 4 (Herbicidal ratio of 70% or higher and lower than 90%). For the same compound, the “Herbicidal effect grade, B: Scirpus juncoides” value (“Herbicidal effect grade, B” below) in series [2] and in series [3] was 0 (Herbicidal ratio of 5% or lower (almost no effect)) throughout. Moreover, the “Herbicidal effect grade, C: Monochoria vaginalis” value (“Herbicidal effect grade, C” below) in [4] is 0 (Herbicidal ratio of 5% or lower (almost no effect)). Also, the “H (Echinochloa crus-galli var. crus-galli) herbicidal effect grade” value in [5] (Table 24) was 5 (Herbicidal ratio of 90% or more (almost completely withered)). For the same compound, in [6] (setting [13]), the “Herbicidal effect grade, N: Amaranthus retroflexus” value is given as 0 (Herbicidal ratio of 5% or lower (almost no effect)). Moreover, the “Effect on crop grade, d: soybean” value in series [7] (setting [13]) is 0 (Herbicidal ratio of 5% or lower (almost no effect)). Further, the “Effect on crop grade, g: rapeseed” value in [8] (setting [13]) was 0 (Herbicidal ratio of 5% or lower (almost no effect)). Further, the “I: Avena fatua, herbicidal effect grade” value in series [9] was 5 (Herbicidal ratio of 90% or more (almost completely withered)). Further, the “d: soybean, effect on crop grade” value in series [10] is 0 (Herbicidal ratio of 5% or lower (almost no effect)). Besides, the “b: directly sowed rice plant, effect on crop grade” value in series [11] is 4 (Herbicidal ratio of 70% or higher and lower than 90%). Besides, the “e: wheat, effect on crop grade” value in series [12] is reported as 0 (Herbicidal ratio of 5% or lower (almost no effect)).

Regarding `CC(CC1CC(O)=C(c2c(C)cc(C)cc2C)C1=O)=NO` (stereo not drawn) [1-058], the “Herbicidal effect grade, A: Echinochloa oryzacola Vasing.” value in series [1] was 5 (Herbicidal ratio of 90% or more (almost completely withered)). In addition, the “Herbicidal effect grade, B” value in series [2] and in series [3] was 0 (Herbicidal ratio of 5% or lower (almost no effect)) each time. Also, the “Herbicidal effect grade, C” value in series [4] is given as 0 (Herbicidal ratio of 5% or lower (almost no effect)). In [5], the “herbicidal effect on H (Echinochloa crus-galli var. crus-galli), grade 0-5” value (“herbicidal effect on H” for short) is given as 5 (Herbicidal ratio of 90% or more (almost completely withered)). In addition, in series [6] (setting [13]), the “N (Amaranthus retroflexus) herbicidal effect grade” value is 2 (Herbicidal ratio of 20% or higher and lower than 40%). Further, the “d (soybean) effect on crop grade” value in series [7] (setting [13]) is given as 0 (Herbicidal ratio of 5% or lower (almost no effect)). Further, the “g (rapeseed) effect on crop grade” value in series [8] (setting [13]) is 3 (Herbicidal ratio of 40% or higher and lower than 70%). In addition, in series [9], the “I: Avena fatua, herbicidal effect grade” value is recorded as 5 (Herbicidal ratio of 90% or more (almost completely withered)). For the same compound, the “d: soybean, effect on crop grade” value in series [10] is 3 (Herbicidal ratio of 40% or higher and lower than 70%). In addition, the “b: directly sowed rice plant, effect on crop grade” value in series [11] is reported as 5 (Herbicidal ratio of 90% or more (almost completely withered)). The “e: wheat, effect on crop grade” value in series [12] is 5 (Herbicidal ratio of 90% or more (almost completely withered)).

As for `CC(CC1CC(O)=C(c2c(C)cc(C)cc2C)C1=O)=NOCC(=O)N1CCOCC1` (stereo not drawn) [1-025], the “Herbicidal effect grade, A: Echinochloa oryzacola Vasing.” value in series [1] was 4 (Herbicidal ratio of 70% or higher and lower than 90%). The “Herbicidal effect grade, B” value in [2] was 2 (Herbicidal ratio of 20% or higher and lower than 40%); in series [3], 0 (Herbicidal ratio of 5% or lower (almost no effect)). For the same compound, in [4], the “Herbicidal effect grade, C” value is listed as 0 (Herbicidal ratio of 5% or lower (almost no effect)). Further, in series [5], the “herbicidal effect on H” value was 5 (Herbicidal ratio of 90% or more (almost completely withered)). Further, in series [6] (setting [13]), the “N (Amaranthus retroflexus) herbicidal effect grade” value is reported as 0 (Herbicidal ratio of 5% or lower (almost no effect)). For the same compound, the “d (soybean) effect on crop grade” value in series [7] (setting [13]) is on record as 0 (Herbicidal ratio of 5% or lower (almost no effect)). For the same compound, the “g (rapeseed) effect on crop grade” value in [8] (setting [13]) is 4 (Herbicidal ratio of 70% or higher and lower than 90%). The “I: Avena fatua, herbicidal effect grade” value in series [9] is given as 5 (Herbicidal ratio of 90% or more (almost completely withered)). Further, in [10], the “d: soybean, effect on crop grade” value is 3 (Herbicidal ratio of 40% or higher and lower than 70%). For the same compound, the “b: directly sowed rice plant, effect on crop grade” value in series [11] was 4 (Herbicidal ratio of 70% or higher and lower than 90%). In series [12], the “e: wheat, effect on crop grade” value is 4 (Herbicidal ratio of 70% or higher and lower than 90%).

Turning to `COCC(=O)OC1=C(c2c(C)cc(C)cc2C)C(=O)C(CC(C)=NOC)C1` (stereo not drawn) [1-093], the “Herbicidal effect grade, A: Echinochloa oryzacola Vasing.” value in series [1] is recorded as 5 (Herbicidal ratio of 90% or more (almost completely withered)). The “Herbicidal effect grade, B” value in series [2] and in series [3] was 5 (Herbicidal ratio of 90% or more (almost completely withered)) throughout. Further, the “Herbicidal effect grade, C” value in series [4] was 3 (Herbicidal ratio of 40% or higher and lower than 70%). Moreover, the “herbicidal effect on H” value in series [5] is given as 5 (Herbicidal ratio of 90% or more (almost completely withered)). Further, the “N: Amaranthus retroflexus, herbicidal effect grade” value in series [6] (320 g/ha) is 3 (Herbicidal ratio of 40% or higher and lower than 70%). In addition, the “d: soybean, effect grade on crop” value in series [7] (320 g/ha) is on record as 0 (Herbicidal ratio of 5% or lower (almost no effect)). The “g: rapeseed, effect grade on crop” value in series [8] (320 g/ha) was 4 (Herbicidal ratio of 70% or higher and lower than 90%). Moreover, the “I: Avena fatua, herbicidal effect (criteria 0-5)” value in series [9] is 5 (Herbicidal ratio of 90% or more (almost completely withered)). For the same compound, the “d: soybean, effect on crop (criteria 0-5)” value in [10] was 3 (Herbicidal ratio of 40% or higher and lower than 70%). Further, the “b: directly sowed rice plant, effect on crop (criteria 0-5)” value in [11] is on record as 5 (Herbicidal ratio of 90% or more (almost completely withered)). Further, in series [12], the “e: wheat, effect on crop (criteria 0-5)” value was 5 (Herbicidal ratio of 90% or more (almost completely withered)).

On to `CON=C(C)CC1CC(OC(=O)C(C)(C)OC(C)=O)=C(c2c(C)cc(C)cc2C)C1=O` (stereo not drawn) [1-034], for which the “Herbicidal effect grade, A: Echinochloa oryzacola Vasing.” value in series [1] is 5 (Herbicidal ratio of 90% or more (almost completely withered)). The “Herbicidal effect grade, B” value is 4 (Herbicidal ratio of 70% or higher and lower than 90%) in [2]; 3 (Herbicidal ratio of 40% or higher and lower than 70%) in series [3]. Also, in series [4], the “Herbicidal effect grade, C” value was 3 (Herbicidal ratio of 40% or higher and lower than 70%). Moreover, the “herbicidal effect on H” value in series [5] is listed as 5 (Herbicidal ratio of 90% or more (almost completely withered)). The “N (Amaranthus retroflexus) herbicidal effect grade” value in series [6] (setting [13]) was 5 (Herbicidal ratio of 90% or more (almost completely withered)). Also, the “d (soybean) effect on crop grade” value in [7] (setting [13]) is given as 0 (Herbicidal ratio of 5% or lower (almost no effect)). Also, the “g (rapeseed) effect on crop grade” value in series [8] (setting [13]) is recorded as 5 (Herbicidal ratio of 90% or more (almost completely withered)). The “I: Avena fatua, herbicidal effect grade” value in series [9] is 5 (Herbicidal ratio of 90% or more (almost completely withered)). Further, in series [10], the “d: soybean, effect on crop grade” value was 4 (Herbicidal ratio of 70% or higher and lower than 90%). Besides, the “b: directly sowed rice plant, effect on crop grade” value in series [11] is 5 (Herbicidal ratio of 90% or more (almost completely withered)). Besides, the “e: wheat, effect on crop grade” value in series [12] was 5 (Herbicidal ratio of 90% or more (almost completely withered)).

For `CON=CC(C)(C)C1CC(O)=C(c2c(C)cc(C)cc2C)C1=O` (stereo not drawn) [1-030], the “Herbicidal effect grade, A: Echinochloa oryzacola Vasing.” value in series [1] was 2 (Herbicidal ratio of 20% or higher and lower than 40%). Besides, the “Herbicidal effect grade, B” value in series [2] and in series [3] was 0 (Herbicidal ratio of 5% or lower (almost no effect)) each time. Also, in [4], the “Herbicidal effect grade, C” value is listed as 0 (Herbicidal ratio of 5% or lower (almost no effect)). Moreover, the “herbicidal effect on H” value in [5] is reported as 5 (Herbicidal ratio of 90% or more (almost completely withered)). The “N (Amaranthus retroflexus) herbicidal effect grade” value in series [6] (setting [13]) is reported as 0 (Herbicidal ratio of 5% or lower (almost no effect)). Further, the “d (soybean) effect on crop grade” value in series [7] (setting [13]) is listed as 0 (Herbicidal ratio of 5% or lower (almost no effect)). Further, the “g (rapeseed) effect on crop grade” value in [8] (setting [13]) was 0 (Herbicidal ratio of 5% or lower (almost no effect)). Also, the “I: Avena fatua, herbicidal effect grade” value in series [9] is 3 (Herbicidal ratio of 40% or higher and lower than 70%). For the same compound, the “d: soybean, effect on crop grade” value in series [10] is given as 0 (Herbicidal ratio of 5% or lower (almost no effect)). Further, the “b: directly sowed rice plant, effect on crop grade” value in [11] is 5 (Herbicidal ratio of 90% or more (almost completely withered)). The “e: wheat, effect on crop grade” value in [12] was 0 (Herbicidal ratio of 5% or lower (almost no effect)).

For the origin of these results see patent publication US11000033B2, “Ketone or oxime compound, and herbicide” (NISSAN CHEMICAL CORPORATION, priority 2014, dated 2021).
